The source made the active and inactive calls. The calls are words filed in the database; no cut-off is given here.
Columns and labels:
CCRF-CEM [1] = assay: Cytotoxicity against human CCRF-CEM cells assessed as reduction in cell viability at 25 uM incubated for 72 hrs by MTT assay; assay type: functional
H9c2 [2] = assay: Cytotoxicity against rat H9c2 cells assessed as reduction in cell viability at 5 to 25 uM incubated upto 96 hrs by MTT assay; assay type: cell-based; details: h9c2, 96 h, dose 5-25 µM
AGS [3] = assay: Cytotoxicity against human AGS cells assessed as reduction in cell viability at 5 uM incubated for 24 hrs by MTT assay; assay type: functional
Rattus norvegicus = organism: Rattus norvegicus; assay: Drug uptake in nucleus of rat H9c2 cells measured after 24 hrs by DAPI staining based confocal microscopy analysis; assay type: ADME, cell-based; details: h9c2, 24 h
[4] = Drug uptake in nucleus of human SK-OV-3 cells incubated for 3 hrs by fluorescence microscopy; assay type: ADME, subcellular; details: sk-ov-3, 3 h
AGS [5] = assay: Cytotoxicity against human AGS cells assessed as reduction in cell viability at 5 uM incubated for 72 hrs by MTT assay; assay type: functional
LLC-PK1 [6] = assay: Cytotoxicity against pig LLC-PK1 cells assessed as reduction in cell viability at 5 uM incubated for 24 hrs by MTT assay; assay type: cell-based, Sus scrofa; details: llc-pk1, 24 h
CCRF-CEM [7] = assay: Cytotoxicity against human CCRF-CEM cells assessed as reduction in cell viability at 5 uM incubated for 24 hrs by MTT assay; assay type: functional
SK-OV-3 [8] = assay: Cytotoxicity against human SK-OV-3 cells assessed as reduction in cell viability at 5 uM incubated for 72 hrs by MTT assay; assay type: functional
H9c2 [9] = assay: Cytotoxicity against rat H9c2 cells assessed as reduction in cell viability at 5 uM incubated for 96 hrs by MTT assay; assay type: cell-based; details: h9c2, 96 h
CCRF-CEM [10] = assay: Cytotoxicity against human CCRF-CEM cells assessed as reduction in cell viability at 5 uM incubated for 72 hrs by MTT assay; assay type: functional
H9c2 [11] = assay: Cytotoxicity against rat H9c2 cells assessed as reduction in cell viability at 5 uM incubated for 24 hrs by MTT assay; assay type: cell-based; details: h9c2, 24 h
MDA-MB-231 [12] = assay: Cytotoxicity against wild type human MDA-MB-231 cells assessed as reduction in cell viability incubated for 72 hrs by MTT assay; assay type: functional; details: read-out: LC50 (the source's name)
LLC-PK1 [13] = assay: Cytotoxicity against pig LLC-PK1 cells assessed as reduction in cell viability at 5 uM incubated for 72 hrs by MTT assay; assay type: cell-based, Sus scrofa; details: llc-pk1, 72 h
MES-SA = assay: Cytotoxicity against human MES-SA cells assessed as reduction in cell viability incubated for 72 hrs by MTT assay; assay type: functional; details: read-out: LC50 (the source's name)
MDA-MB-231 [14] = assay: Cytotoxicity against doxorubicin resistant human MDA-MB-231 cells assessed as reduction in cell viability incubated for 72 hrs by MTT assay; assay type: functional; details: read-out: LC50 (the source's name)
H9c2 [15] = assay: Cytotoxicity against rat H9c2 cells assessed as reduction in cell viability at 5 uM incubated for 72 hrs by MTT assay; assay type: cell-based; details: h9c2, 72 h
SK-OV-3 [16] = assay: Cytotoxicity against human SK-OV-3 cells assessed as reduction in cell viability at 5 uM incubated for 24 hrs by MTT assay; assay type: functional
H9c2 [17] = assay: Cytotoxicity against rat H9c2 cells assessed as change in cell morphology at 5uM measured after 72 hours; assay type: cell-based; details: h9c2, 72 h
AGS [18] = assay: Cytotoxicity against human AGS cells assessed as reduction in cell viability at 50 uM incubated for 72 hrs by MTT assay; assay type: functional
CCRF-CEM [19] = assay: Cytotoxicity against human CCRF-CEM cells assessed as reduction in cell viability at 25 uM incubated for 24 hrs by MTT assay; assay type: functional
AGS [20] = assay: Cytotoxicity against human AGS cells assessed as reduction in cell viability at 25 uM incubated for 72 hrs by MTT assay; assay type: functional
CCRF-CEM [21] = assay: Cytotoxicity against human CCRF-CEM cells assessed as reduction in cell viability at 5 to 10 uM after 72 hrs incubation by MTT assay; assay type: functional; details: dose 5-10 µM
SK-OV-3 [22] = assay: Cytotoxicity against human SK-OV-3 cells assessed as reduction in cell viability at 25 uM incubated for 72 hrs by MTT assay; assay type: functional
SK-OV-3 [23] = assay: Cytotoxicity against human SK-OV-3 cells assessed as reduction in cell viability at 5 to 25 uM incubated for 24 hrs by MTT assay; assay type: functional; details: dose 5-25 µM
AGS [24] = assay: Cytotoxicity against human AGS cells assessed as reduction in cell viability at 5 to 10 uM incubated for 24 to 72 hrs by MTT assay; assay type: functional, cell-based; details: dose 5-10 µM, time 24-72 hrs
LLC-PK1 [25] = assay: Cytotoxicity against pig LLC-PK1 cells assessed as reduction in cell viability at 5 to 50 uM incubated for 72 hrs by MTT assay; assay type: cell-based, Sus scrofa; details: llc-pk1, 72 h, dose 5-50 µM
LLC-PK1 [26] = assay: Cytotoxicity against pig LLC-PK1 cells assessed as reduction in cell viability at 50 uM after 24 hrs of incubation by MTT assay; assay type: cell-based, Sus scrofa; details: llc-pk1, 24 h
[27] = Drug uptake in human MDA-MB-231 cells by flow cytometry in the presence of 30 uM chlorpromazine; assay type: ADME, cell-based
H9c2 [28] = assay: Cytotoxicity against rat H9c2 cells assessed as reduction in cell viability at 25 uM incubated for 96 hrs by MTT assay; assay type: cell-based; details: h9c2, 96 h
H9c2 [29] = assay: Cytotoxicity against rat H9c2 cells assessed as reduction in cell viability at 25 uM incubated for 24 hrs by MTT assay; assay type: cell-based; details: h9c2, 24 h
[30] = Protein binding in 20% FBS by HPLC analysis; assay type: ADME, cell-free, Bos taurus; details: cattle, serum
[31] = Drug uptake in human MDA-MB-231 cells by flow cytometry in the presence of 100 uM chloroquine; assay type: ADME, cell-based
[32] = Drug uptake in human SK-OV-3 cells assessed as doxorubicin fluorescence incubated for 3 hrs by fluorescence microscopy; assay type: ADME, cell-based; details: sk-ov-3, 3 h
H9c2 [33] = assay: Cytotoxicity against rat H9c2 cells assessed as reduction in cell viability at 5 to 10 uM incubated upto 96 hrs by MTT assay; assay type: cell-based; details: h9c2, 96 h, dose 5-10 µM
[34] = Drug uptake in nucleus of human MDA-MB-231 cells by confocal microscopy in the presence of 6 ug/mL chloroquine; assay type: ADME, subcellular
AGS [35] = assay: Cytotoxicity against human AGS cells assessed as reduction in cell viability at 5 to 10 uM incubated for 24 hrs by MTT assay; assay type: functional, cell-based; details: dose 5-10 µM
H9c2 [36] = assay: Cytotoxicity against rat H9c2 cells assessed as reduction in cell viability at 25 uM incubated for 72 hrs by MTT assay; assay type: cell-based; details: h9c2, 72 h
LLC-PK1 [37] = assay: Cytotoxicity against pig LLC-PK1 cells assessed as reduction in cell viability at 50 uM by MTT assay; assay type: cell-based, Sus scrofa; details: llc-pk1, 50 µM
LLC-PK1 [38] = assay: Cytotoxicity against pig LLC-PK1 cells assessed as reduction in cell viability at 10 uM incubated for 24 to 72 hrs by MTT assay; assay type: cell-based, Sus scrofa; details: llc-pk1, 10 µM, time 24-72 hrs
[39] = Drug uptake in nucleus of human MDA-MB-231 cells by confocal microscopy in the presence of 20 ug/mL chlorpromazine; assay type: ADME, subcellular
[40] = Drug uptake in nucleus of human MDA-MB-231 cells by confocal microscopy in the presence of 50 ug/mL genistein; assay type: ADME, subcellular
CCRF-CEM [41] = assay: Cytotoxicity against human CCRF-CEM cells assessed as reduction in cell viability at 5 to 25 uM after 72 hrs incubation by MTT assay; assay type: functional; details: dose 5-25 µM
[42] = Stability of compound in 10% FBS assessed as parent compound remaining after 24 hrs by HPLC analysis; assay type: ADME; details: cattle, 10% FBS (fetal bovine serum), read-out: Stability
[43] = Drug uptake in human SK-OV-3 cells at 5 uM incubated for 24 hrs by fluorescence microscopy; assay type: ADME, cell-based; details: sk-ov-3, 24 h
AGS [44] = assay: Cytotoxicity against human AGS cells assessed as reduction in cell viability incubated for 72 hrs by MTT assay; assay type: functional
[45] = Drug uptake in rat H9c2 cells assessed as doxorubicin fluorescence measured at 24 to 72 hrs by fluorescence microscopy analysis; assay type: ADME, cell-based; details: time 24-72 hrs
[46] = Drug uptake in nucleus of human MDA-MB-231 cells by confocal microscopy in the presence of 50 ug/mL nystatin; assay type: ADME, subcellular
[47] = Drug uptake in human MDA-MB-231 cells by flow cytometry in the presence of 2.5 mM methyl-beta-cyclodextrin; assay type: ADME, cell-based
[48] = Drug uptake in human MDA-MB-231cells by flow cytometry in the presence of 50 ug/mL nystatin; assay type: ADME
CCRF-CEM [49] = assay: Cytotoxicity against human CCRF-CEM cells assessed as reduction in cell viability at 5 to 10 uM incubated for 24 hrs by MTT assay; assay type: functional, cell-based; details: dose 5-10 µM
SK-OV-3 [50] = assay: Cytotoxicity against human SK-OV-3 cells assessed as reduction in cell viability at 10 uM incubated for 72 hrs by MTT assay; assay type: functional

COc1cccc2c1C(=O)c1c(O)c3c(c(O)c1C2=O)C[C@@](O)(C(=O)CO)C[C@@H]3O[C@H]1C[C@H](NC(=N)CCCSSC[C@H](NC(C)=O)C(=O)N[C@@H](Cc2c[nH]c3ccccc23)C(=O)N[C@@H](Cc2c[nH]c3ccccc23)C(=O)N[C@@H](Cc2c[nH]c3ccccc23)C(=O)N[C@@H](Cc2c[nH]c3ccccc23)C(=O)N[C@@H](Cc2c[nH]c3ccccc23)C(=O)N[C@@H](Cc2c[nH]c3ccccc23)C(=O)N[C@@H](Cc2c[nH]c3ccccc23)C(=O)NCCCC[C@@H]2NC(=O)[C@H](CCCNC(=N)N)NC(=O)[C@H](CCCNC(=N)N)NC(=O)[C@H](CCCNC(=N)N)NC(=O)[C@H](CCCNC(=N)N)NC(=O)[C@H](CCCNC(=N)N)NC2=O)[C@H](O)[C@H](C)O1
Activity (CCRF-CEM [1]): 79%
Activity (H9c2 [2]): Non-Toxic

COc1cccc2c1C(=O)c1c(O)c3c(c(O)c1C2=O)C[C@@](O)(C(=O)CO)C[C@@H]3O[C@H]1C[C@H](N)[C@H](O)[C@H](C)O1 [DOXORUBICIN]
Activity (AGS [3]): 46%
Drug uptake (Rattus norvegicus): Active
Drug uptake [4]: Active
Activity (AGS [5]): 87%
Activity (LLC-PK1 [6]): 64%
Activity (CCRF-CEM [7]): 52%
Activity (SK-OV-3 [8]): 33%
Activity (H9c2 [9]): 44%
Activity (CCRF-CEM [10]): 85%
Activity (H9c2 [11]): 20%
CC50 (MDA-MB-231 [12]): 0.45 µM
Activity (LLC-PK1 [13]): 77%
CC50 (MES-SA): 4.3 µM
CC50 (MDA-MB-231 [14]): 2.3 µM
Activity (H9c2 [15]): 44%
Activity (SK-OV-3 [16]): 27%
Activity (H9c2 [17]): Toxic

N=C(N)NCCC[C@@H]1NC(=O)[C@H](CCCCNC(=O)[C@H](Cc2c[nH]c3ccccc23)NC(=O)[C@H](Cc2c[nH]c3ccccc23)NC(=O)[C@H](Cc2c[nH]c3ccccc23)NC(=O)[C@H](Cc2c[nH]c3ccccc23)NC(=O)[C@H](Cc2c[nH]c3ccccc23)NC(=O)[C@H](Cc2c[nH]c3ccccc23)NC(=O)[C@H](Cc2c[nH]c3ccccc23)NC(=O)CCN)NC(=O)[C@H](CCCNC(=N)N)NC(=O)[C@H](CCCNC(=N)N)NC(=O)[C@H](CCCNC(=N)N)NC(=O)[C@H](CCCNC(=N)N)NC1=O
Activity (AGS [18]): 87%
Activity (CCRF-CEM [19]): 68%
Activity (AGS [20]): 24%
Activity (CCRF-CEM [21]): 10%
Activity (SK-OV-3 [22]): 19%
Activity (SK-OV-3 [23]): 21%
Activity (AGS [24]): inactive
Activity (LLC-PK1 [25]): Non-Toxic
Activity (LLC-PK1 [26]): 71%

COc1cccc2c1C(=O)c1c(O)c3c(c(O)c1C2=O)C[C@@](O)(C(=O)COC(=O)CCCC(=O)NCCC(=O)N[C@@H](Cc1c[nH]c2ccccc12)C(=O)N[C@@H](Cc1c[nH]c2ccccc12)C(=O)N[C@@H](Cc1c[nH]c2ccccc12)C(=O)N[C@@H](Cc1c[nH]c2ccccc12)C(=O)N[C@@H](Cc1c[nH]c2ccccc12)C(=O)N[C@@H](Cc1c[nH]c2ccccc12)C(=O)N[C@@H](Cc1c[nH]c2ccccc12)C(=O)NCCCC[C@@H]1NC(=O)[C@H](CCCNC(=N)N)NC(=O)[C@H](CCCNC(=N)N)NC(=O)[C@H](CCCNC(=N)N)NC(=O)[C@H](CCCNC(=N)N)NC(=O)[C@H](CCCNC(=N)N)NC1=O)C[C@@H]3O[C@H]1C[C@H](N)[C@H](O)[C@H](C)O1
Drug uptake [27]: 78%
Activity (CCRF-CEM [19]): 64%
Activity (H9c2 [28]): 39%
Activity (H9c2 [29]): 68%
Activity [30]: Active
Drug uptake [31]: Active
Activity (SK-OV-3 [22]): 48%
Drug uptake [32]: Not Active
Activity (H9c2 [33]): Non-Toxic
Drug uptake [34]: Active
Activity (AGS [35]): inactive
Activity (H9c2 [36]): 37%
Activity (SK-OV-3 [8]): 29%
Activity (LLC-PK1 [37]): 33%
Activity (LLC-PK1 [38]): Non-Toxic
Drug uptake [39]: Active
Drug uptake [40]: Active
Activity (CCRF-CEM [41]): 84%
remaining at 24 h [42]: 25%
Drug uptake [43]: Active
Activity (AGS [44]): 73%
CC50 (MDA-MB-231 [12]): 0.56 µM
Drug uptake [45]: Not Active
CC50 (MES-SA): 41 µM
Drug uptake [46]: Active
Drug uptake [47]: 72%
CC50 (MDA-MB-231 [14]): 36 µM
Drug uptake [48]: Active
Activity (CCRF-CEM [49]): Active
Activity (SK-OV-3 [50]): 39%

From ChEMBL document CHEMBL5036344, “Design and application of hybrid cyclic-linear peptide-doxorubicin conjugates as a strategy to overcome doxorubicin resistance and toxicity” (Eur J Med Chem, 2021)
